From patent publication US8609681B2, “Spirocyclic nitriles as protease inhibitors” (Sanofi, priority 2006, dated 2013)

Columns and labels:
Type in all cases: biochemical
Conditions in all cases: Ki from IC50 by Cheng-Prusoff equation
[1] = target: catalytic domain of human Cathepsin K (Homo sapiens (Human), UniProt P43235); assay: Enzymatic activity of the catalytic domain of human Cathepsin K (fluorogenic substrate Boc-Ala-Gly-Pro-Arg-AMC)
Description: (§1) The enzyme is activated as follows:
1 part by volume of enzyme is admixed with 4 parts by volume of cysteine solution and diluted with the acetate/Hepes buffer to a concentration of 0.22 μg/ml.
(§2) To measure the enzyme activity, 10 μl of enzyme solution are incubated with 10 μl of a 3% (v/v) aqueous dimethyl sulfoxide solution (reaction 1) for 10 minutes. To measure the enzyme inhibitor activity, 10 μl of enzyme solution are incubated with 10 μl of a 3% (v/v) aqueous dimethyl sulfoxide solution which contains the enzyme inhibitor (reaction 2).
(§3) Both in reaction 1 and in reaction 2, after addition of 10 μl of a 3% (v/v) aqueous dimethyl sulfoxide solution which contains 0.3 mmol/l of the substrate, the enzyme reaction is monitored by fluorescence spectroscopy (360 nm (excitation)/465 nm (emission)).
(§4) The enzyme activity is shown as fluorescence increase/minute.
(§5) The inhibitor action is calculated as the percentage inhibition by the following formula: % inhibition=100−[(fluorescence increase/minute in reaction 2)/(fluorescence increase/minute in reaction 1)×100].
(§6) The IC50, which is the inhibitor concentration required for a 50% inhibition in the enzyme activity, is determined graphically by plotting the percentage inhibitions at different inhibitor concentrations.
(§7) The cysteine solution contains 0.3 mol/l of cysteine in water. The acetate/Hepes buffer contains 0.15 mol/l of sodium acetate, 0.15 mol/l of Hepes, 0.3 mol/l of sodium chloride and 0.001% Pluronic (Sigma, Deisenhofen, Germany) pH 6.5.
The enzyme solution contains 0.22 μg/ml of the enzyme domain.
The substrate solution contains 0.3 mmol/l of the fluorogenic substrate Boc-Ala-Gly-Pro-Arg-AMC (Bachem, Heidelberg, Germany).
(§8) Corresponding Ki values are obtained by applying the Cheng-Prusoff equation: Ki=Ki,app/(1+[S]/KM); where Ki,app=IC50
(§9) (Ki,app is the concentration of the competing substance which leads to 50% inhibition of the enzymatic activity at a substrate concentration [S])

[2] = target: catalytic domain of human Cathepsin B (Homo sapiens (Human), UniProt P07858); assay: Enzymatic activity of the catalytic domain of human Cathepsin B (fluorogenic substrate Z-Arg-Arg-AMC)
Description: as §1
25 μg of enzyme are diluted with acetate buffer to a concentration of 12.5 μg/ml. 1 part by volume of enzyme is admixed with 20 parts by volume of cysteine solution and diluted with the acetate/Hepes buffer to a concentration of 0.11 μg/ml and incubated at 37° C. for 5 minutes.
as §2, §3, §4
The inhibitor action is calculated as the percentage inhibition by the following formula: inhibition=100−[(fluorescence increase/minute in reaction 2)/(fluorescence increase/minute in reaction 1)×100].
as §6
The acetate buffer contains 0.1 mol/l of sodium acetate, 0.1 mol/l of sodium chloride and 0.001% Pluronic (Sigma, Deisenhofen, Germany) pH 4.5.
as §7
The enzyme solution contains 0.11 μg/ml of the enzyme domain.
The substrate solution contains 0.3 mmol/l of the fluorogenic substrate […] (Bachem, Heidelberg, Germany).
as §8, §9

[3] = target: catalytic domain of human Cathepsin S (Homo sapiens (Human), UniProt P25774); assay: Enzymatic activity of the catalytic domain of human Cathepsin S (fluorogenic substrate Z-Val-Val-Arg-AMC)
Description: as §1
5 parts by volume of enzyme are incubated with 20 parts by volume of acetate buffer and 50 parts by volume of cysteine solution at 37° C. for 5 minutes. After the activation of the enzyme, it is diluted with the Tris/HCl buffer to a concentration of 0.65 μg/ml. To measure the enzyme activity, 10 μl of enzyme solution are incubated with 10 μl of a 3% (v/v) aqueous dimethyl sulfoxide solution (reaction 1) for 10 minutes. To measure the enzyme inhibitor activity, 10 μl of enzyme solution are incubated with 10 μl of a 3% (v/v) aqueous dimethyl sulfoxide solution which contains the enzyme inhibitor (reaction 2). Both in reaction 1 and in reaction 2, after addition of 10 μl of a 1.5% (v/v) aqueous dimethyl sulfoxide solution which contains 0.15 mmol/l of the substrate, the enzyme reaction is monitored by fluorescence spectroscopy (360 nm (excitation)/465 nm (emission)).
as §4, §5, §6
The acetate buffer contains 0.05 mol/l of sodium acetate, 0.1 mol/l of sodium chloride and 0.001% Pluronic (Sigma, Deisenhofen, Germany) pH 5.5.
The cysteine solution contains 0.3 mol/l of cysteine in water. The Tris/HCl buffer contains 0.1 mol/l of Tris/HCl, 0.04 mol/l of EDTA and 0.001% Pluronic pH=7.5. The enzyme solution contains 0.65 μg/ml of the enzyme domain.
The substrate solution contains 0.15 mmol/l of the fluorogenic substrate Z-Val-Val-Arg-AMC (Bachem, Heidelberg, Germany).
as §8, §9

Chain of catalytic domain of human Cathepsin S (P25774 115-331): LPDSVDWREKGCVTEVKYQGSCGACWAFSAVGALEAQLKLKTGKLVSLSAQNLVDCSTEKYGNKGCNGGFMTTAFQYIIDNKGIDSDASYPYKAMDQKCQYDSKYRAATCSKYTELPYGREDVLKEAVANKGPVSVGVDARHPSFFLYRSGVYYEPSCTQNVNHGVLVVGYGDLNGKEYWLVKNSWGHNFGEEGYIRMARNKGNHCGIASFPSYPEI
Chain of catalytic domain of human Cathepsin K (P43235 115-329): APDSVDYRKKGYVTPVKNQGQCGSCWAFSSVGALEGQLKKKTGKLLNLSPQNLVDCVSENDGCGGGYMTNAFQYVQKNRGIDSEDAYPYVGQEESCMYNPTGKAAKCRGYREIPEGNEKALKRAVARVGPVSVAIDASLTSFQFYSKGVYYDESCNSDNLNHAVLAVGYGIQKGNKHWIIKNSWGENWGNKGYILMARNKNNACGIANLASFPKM

SMILES	Ki [1] [nM]	Ki [2] [nM]	Ki [3] [nM]
CC(F)(F)C[C@H](NC(=O)N1CC2(CCN(C3CC3)CC2)C1)C(=O)NC1(C#N)CC1 [Example 83]	28	2300	8
CC(C)C[C@H](NC(=O)C1CCC2(CC1)OCCO2)C(=O)NC1(C#N)CC1 [Example 35, N—[(S)-1-(1-cyanocyclopropylcarbamoyl)-3-methylbutyl]-1,4-dioxaspiro[4.5]decane-8-carboxamide]	31	> 7100	150
CC(F)(F)C[C@H](NC(=O)N1CCC2(CCCc3ccccc32)C1)C(=O)NC1(C#N)CC1 (stereo partly drawn) [Example 79]	16	620	9
CC(F)(F)C[C@H](NC(=O)N1CCC2(CCCCC2)CC1)C(=O)NC1(C#N)CC1 [Example 9, N—[(S)-1-(1-cyanocyclopropylcarbamoyl)-3,3-difluorobutyl]-3-azaspiro[5.5]undecane-3-carboxamide]	1.8	46	3.2
CC(F)(F)C[C@H](NC(=O)N1CCC2(CC1)CCN(Cc1ccccc1)C2=O)C(=O)NC1(C#N)CC1 [Example 49]	52	2200	16
CC(F)(F)C[C@H](NC(=O)N1CCC2(CC1)CCN(C1CC1)CC2)C(=O)NC1(C#N)CC1 [Example 56]	7.5	210	7.2
CC(F)(F)C[C@H](NC(=O)N1CCC2(CC1)OCc1ccccc12)C(=O)NC1(C#N)CC1 [Example 78]	38	530	19
CCCC(F)(F)C[C@H](NC(=O)N1CCC2(CC1)CCN(C1CC1)CC2)C(=O)NC1(C#N)CC1 [Example 94]	24	84	2
N#CC1(NC(=O)[C@H](CC(F)(F)Cc2ccccc2)NC(=O)N2CCC3(CC2)CC3)CC1 [Example 70, N—[(S)-1-(1-cyanocyclopropylcarbamoyl)-3,3-difluoro-4-phenylbutyl]-6-azaspiro[2.5]octane-6-carboxamide]	910	110	0.3
CCCC(F)(F)C[C@H](NC(=O)N1CCC2(CC1)CCN(c1ccc(OC)cc1)C2)C(=O)NC1(C#N)CC1 [Example 91]	43	140	2
CC(F)(F)C[C@H](NC(=O)N1CCC2(CC1)CCC(C)(C)O2)C(=O)NC1(C#N)CC1 [Example 76]	47	930	22
CC(F)(F)C[C@H](NC(=O)N1CCC2(CC1)CC(=O)N(CC1CC1)C2)C(=O)NC1(C#N)CC1 [Example 88]	15	310	9
CC(F)(F)C[C@H](NC(=O)N1CCC2(CC1)OCCO2)C(=O)NC1(C#N)CC1 [Example 37]	21	560	13
N#CC1(NC(=O)C2(NC(=O)N3CCC4(CCCC4)CC3)CCCCC2)CC1 [Example 53]	4.5	1500	53
CC(F)(F)C[C@H](NC(=O)N1CCC2(CC1)C(=O)NCN2c1ccccc1)C(=O)NC1(C#N)CC1 [Example 42]	32	4500	11
CC(F)(F)C[C@H](NC(=O)N1CCC2(CC1)NCC(C)(C)CO2)C(=O)NC1(C#N)CC1 [Example 45]	21	1200	24
CC(F)(F)C[C@H](NS(=O)(=O)N1CCC2(CCCC2)CC1)C(=O)NC1(C#N)CC1 [Example 74, N-(1-Cyanocyclopropyl)-(S)-2-(8-azaspiro[4.5]decane-8-sulfonylamino)-4,4-difluoropentamide]	150	> 7100	16
CN1CCC(C#N)(NC(=O)[C@H](CC(C)(F)F)NC(=O)N2CCC3(CC2)CC3)CC1 [Example 103]	84	99	27
N#CC1(NC(=O)[C@H](CC(F)(F)Cc2ccccc2)NC(=O)N2CCC3(CC2)CCN(C2CC2)CC3)CC1 [Example 97]	400	100	1
CC(F)(F)C[C@H](NC(=O)N1CCOC12CCCCC2)C(=O)NC1(C#N)CC1 [Example 80]	36	3900	9
CC(F)(F)C[C@H](NC(=O)N1CCC2(CC1)CC2)C(=O)NC1(C#N)CC1 [Example 63, N—[(S)-1-(1-cyanocyclopropylcarbamoyl)-3,3-difluorobutyl]-6-azaspiro[2.5]octane-6-carboxamide]	22	260	5
CCCC(F)(F)C[C@H](NC(=O)N1CCC2(CC1)CC2)C(=O)NC1(C#N)CC1 [Example 102]	33	62	0.5
CC(F)(F)C[C@H](NC(=O)N1CCC2(CCCCC2)C1)C(=O)NC1(C#N)CC1 [Example 77]	20	220	7
CC(F)(F)C[C@H](NC(=O)N1CCC2(CCCC2)CC1)C(=O)NC1(C#N)CC1 [Example 36]	3	44	2
